Results published in PubChem BioAssay AID330 (DTP/NCI, 2004).
Several values for one entry are separate records, joined by “and”; a condition that tells them apart may be missing. Identical values can stand only once. Toxic doses and inconclusive results are not listed. Rule for the calls: active = survival T/C of 150% or more; inactive = T/C below 125% in these data.

Tested on: P388 leukemia ip, CD2F1 mice, survival T/C
Test: NCI In Vivo Anticancer Drug Screen. Data for tumor model P388 Leukemia (intraperitoneal) in CD2F1 (CDF1) mice
Conditions: endpoint: median survival time, higher = longer survival
Procedure, shortened: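 Mice carrying the transplanted tumor received test compound or vehicle. Survival was recorded in each group, and the value is the treated-group measurement divided by that of the vehicle-treated control group.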

[1] = dose: 50.0 mg/kg/injection, schedule: Q01DX009 (ip), vehicle: saline
[2] = dose: 100.0 mg/kg/injection, schedule: Q01DX009 (ip), vehicle: saline
[3] = dose: 200.0 mg/kg/injection, schedule: Q01DX009 (ip), vehicle: saline

Measured: T/C

CCOC(=O)c1cn2ccccc2c(C(=O)c2cccnc2)c1=N
inactive: dose: 100.0 mg/kg/injection, schedule: Q04DX003 (ip), vehicle: saline 91 % of control | dose: 200.0 mg/kg/injection, schedule: Q04DX003 (ip), vehicle: saline 96 % of control | dose: 400.0 mg/kg/injection, schedule: Q04DX003 (ip), vehicle: saline 96 % of control

O=NNc1cncc(Sc2ccccc2)n1
inactive: dose: 3.12 mg/kg/injection, schedule: Q01DX009 (ip), vehicle: water 97 % of control | dose: 6.25 mg/kg/injection, schedule: Q01DX009 (ip), vehicle: water 94 % of control | dose: 12.5 mg/kg/injection, schedule: Q01DX009 (ip), vehicle: water 101 % of control | dose: 25.0 mg/kg/injection, schedule: Q01DX008 (ip), vehicle: water 116 % of control | dose: 25.0 mg/kg/injection, schedule: Q01DX009 (ip), vehicle: water 107 % of control | dose: 50.0 mg/kg/injection, schedule: Q01DX008 (ip), vehicle: water 120 % of control | dose: 50.0 mg/kg/injection, schedule: Q01DX009 (ip), vehicle: water 92 % of control

CC(=O)N1NC(=O)c2c([nH]c3ccccc23)C1c1ccccc1 (centres undefined)
inactive: dose: 100.0 mg/kg/injection, schedule: Q04DX002 (ip), vehicle: Klucel (hydroxypropylcellulose) (HPC) 101 % of control | dose: 200.0 mg/kg/injection, schedule: Q04DX002 (ip), vehicle: Klucel (hydroxypropylcellulose) (HPC) 106 % of control | dose: 400.0 mg/kg/injection, schedule: Q04DX002 (ip), vehicle: Klucel (hydroxypropylcellulose) (HPC) 101 % of control

CCOP(=O)(OCC)C1OCCCO1
inactive: [1] 102 % of control | [2] 98 % of control | [3] 106 % of control

Cc1c(NC(=O)CCl)c(=O)oc2c(C)c3occc(=O)c3cc12
inactive: dose: 30.0 mg/kg/injection, schedule: Q01DX005 (ip), vehicle: saline with Tween-80 100 % of control | dose: 60.0 mg/kg/injection, schedule: Q01DX005 (ip), vehicle: saline with Tween-80 89 % of control and 97 % of control | dose: 120.0 mg/kg/injection, schedule: Q01DX005 (ip), vehicle: saline with Tween-80 90 % of control | dose: 240.0 mg/kg/injection, schedule: Q01DX005 (ip), vehicle: saline with Tween-80 99 % of control

C[C@H]1C[C@@H]2[C@H]([C@@H](O)C[C@@]3(C)[C@H]2CC[C@]3(O)C(=O)CO)[C@@]2(C)C=CC(=O)C=C12
inactive: dose: 50.0 mg/kg/injection, schedule: Q01DX009 (ip), vehicle: saline with Tween-80 100 % of control | dose: 66.0 mg/kg/injection, schedule: Q01DX009 (ip), vehicle: saline with Tween-80 95 % of control | dose: 100.0 mg/kg/injection, schedule: Q01DX009 (ip), vehicle: saline with Tween-80 100 % of control | dose: 100.0 mg/kg/injection, schedule: Q04DX003 (ip), vehicle: saline with Tween-80 106 % of control and 112 % of control | dose: 132.0 mg/kg/injection, schedule: Q04DX003 (ip), vehicle: saline with Tween-80 109 % of control | dose: 150.0 mg/kg/injection, schedule: Q01DX009 (ip), vehicle: saline with Tween-80 90 % of control | dose: 200.0 mg/kg/injection, schedule: Q01DX009 (ip), vehicle: saline with Tween-80 97 % of control | dose: 200.0 mg/kg/injection, schedule: Q04DX003 (ip), vehicle: saline with Tween-80 108 % of control and 109 % of control | dose: 300.0 mg/kg/injection, schedule: Q04DX003 (ip), vehicle: saline with Tween-80 95 % of control | dose: 400.0 mg/kg/injection, schedule: Q04DX003 (ip), vehicle: saline with Tween-80 104 % of control and 108 % of control

CCc1c(-c2ccc(Cl)cc2)nc(N)nc1-c1nc(N)nc(-c2ccc(Cl)cc2)c1CC
inactive: dose: 60.0 mg/kg/injection, schedule: Q01DX005 (ip), vehicle: saline 100 % of control | dose: 120.0 mg/kg/injection, schedule: Q01DX005 (ip), vehicle: saline 100 % of control

COC(=O)c1n[nH]nc1CC(N)=O
inactive: dose: 50.0 mg/kg/injection, schedule: Q01DX005 (ip), vehicle: saline 105 % of control | dose: 100.0 mg/kg/injection, schedule: Q01DX005 (ip), vehicle: saline 105 % of control | dose: 200.0 mg/kg/injection, schedule: Q01DX005 (ip), vehicle: saline 103 % of control

COc1cccc(C2OC3=C(Nc4ccc(Cl)cc4N3)C2=O)c1 (centres undefined)
inactive: dose: 50.0 mg/kg/injection, schedule: Q01DX005 (ip), vehicle: Klucel (hydroxypropylcellulose) (HPC) 93 % of control | dose: 100.0 mg/kg/injection, schedule: Q01DX005 (ip), vehicle: Klucel (hydroxypropylcellulose) (HPC) 104 % of control | dose: 200.0 mg/kg/injection, schedule: Q01DX005 (ip), vehicle: Klucel (hydroxypropylcellulose) (HPC) 90 % of control

C=CC1CCCC[S+]1CC(=O)OCC (centres undefined)
inactive: dose: 25.0 mg/kg/injection, schedule: Q04DX002 (ip), vehicle: saline with Tween-80 91 % of control | dose: 50.0 mg/kg/injection, schedule: Q04DX002 (ip), vehicle: saline with Tween-80 101 % of control | dose: 100.0 mg/kg/injection, schedule: Q04DX002 (ip), vehicle: saline with Tween-80 103 % of control and 109 % of control

Cc1cccc(CCl)n1
inactive: [1] 90 % of control | [2] 107 % of control | [3] 105 % of control
